Experimental data taken from PMC12057357, “Population pharmacokinetics study on nebulized and intravenous administration of polymyxin B in patients with pneumonia caused by multidrug-resistant gram-negative bacteria” (Antimicrobial Agents and Chemotherapy, 2025).
Bridge positions count the residues as written; N and C are the ends. Square brackets hold non-standard residues; d marks the D form. Peptide text beside a SMILES is read from it. * marks the point of attachment. X1 = CC[C@H](C)CCCCC(=O)*; Dab = NCC[C@H](N)C(=O)O

How the values were obtained:
Pseudomonas aeruginosa = tested on: Pseudomonas aeruginosa; set-up: method as in PMID 28031207; conditions: ELF; cited from earlier work
[1] = tested on: human alveolar epithelial A549 cells; set-up: method as in PMID 34228550, PMID 28416543; conditions: cited from earlier work
[2] = tested on: Acinetobacter baumannii (ATCC 19606, 248–01-C.248, and N-16870.213); conditions: cited from earlier work
[3] = plasma; cited from earlier work
Description: (§1) Monte Carlo simulations were used to determine the probability of target attainment (PTA), aiding in the selection of the optimal dosage regimen. According to consensus guidelines, the fAUC/MIC is the most relevant PK/PD index associated with bacterial killing ([11]). In this study, we evaluated the PTA of fAUC/MIC across different dosage regimens in cases of pathogenic infection with varying MIC values to better understand the optimal treatment approach. The preclinical data on PMB are limited, and its in vitro activities are similar to those of colistin ([11], [27]). Consequently, some data ...

[4] = cited from earlier work
Description: The issue of dosage adjustments based on renal function has been a contentious topic ...

[5] = tested on: Pseudomonas aeruginosa (ATCC 27853, PAO1, and FADDI-PA022); conditions: cited from earlier work
Description: as §1, with “[…] Such high fAUC/MIC” for “Consequently, some data”

[6] = Population pharmacokinetic model of PMB in plasma and ELF of patients with MDR-GNB pneumonia; type: in vivo, human
Experimental: This was a single-center, prospective study conducted between January 2022 and October 2024 at Fujian Medical University Union Hospital. […] Patients with severe bronchoconstriction, refractory hypoxemia, pregnancy, or those undergoing continuous renal replacement therapy were excluded.
IV PMB was administered according to the manufacturer’s instructions: a loading dose of 100–150 mg ([…]) followed by maintenance doses of 40–75 mg every 12 h, with an infusion time of approximately 1 h. The decision to administer PMB and its dosing regimen was made by the medical team. Concurrently, selected patients received nebulized PMB at a dose of 25 mg dissolved in 5 mL of half-normal sterile water for injection every 12 h via vibration mesh nebulizer or jet nebulizer over 15 min. Eligible patients received nebulized PMB for 3 days for the treatment of pneumonia. During nebulization, ventilation was performed at a constant flow, targeting an inspiration-to-expiration ratio of 0.5. The respiratory rate was set at 18 breaths/min; the tidal volume was set at 8 mL/kg; and the positive end-expiratory pressure was set at 6 cmH2O.
For all patients, when the PMB concentration in the plasma and lungs reached a steady state (after at least four doses), one to six samples were collected into EDTA tubes at the following time points: 0 h before administration and 1, 2, 4, 6, 8, and 12 h after administration. The plasma and bronchoalveolar lavage (BAL) fluid samples for drug assays were centrifuged at 12,000 rpm for 5 min. The supernatant was then collected and stored at −80°C until analysis.
ELF is obtained through BAL. This procedure involves inserting and wedging a fiberoptic bronchoscope into a subsegment of the middle or lower lung lobe. Before performing BAL, the patient’s CT scan is reviewed to select the affected lung segment for lavage. The lavage is performed at the same location using a 0.9% saline solution. The aspirate from the first lavage is usually collected separately and discarded due to potential severe contamination with cells from the proximal airway. Subsequent recovered aspirates are combined, and their volume is measured and recorded. The remaining volume of BAL fluid is immediately centrifuged to separate the supernatant and the cell pellet. Samples used for measuring urea and drug concentrations in the supernatant are collected and frozen until analysis. The concentration of PMB in ELF can be determined using urea as an endogenous biomarker ([4], [8]). Urea concentration in plasma and ELF is typically the same because urea is […], has a low molecular weight, and can rapidly diffuse to establish equilibrium across the capillary-alveolar membrane. By measuring the urea concentration in both BAL fluid and plasma, the dilution factor can be determined, allowing for the calculation of the actual drug concentration in ELF (Eq.1):
(1) CELF,PMB=CBAL, PMB×Cplasma,urea /CBAL,urea.
As polymyxin B1 and B2 structures, molecular weights, pharmacological activities, and PK properties were […], their plasma concentrations were summed to obtain total PMB concentrations ([24]). Concentrations of PMB were determined by a validated liquid chromatography–tandem mass spectrometry assay with minor modifications ([25]). […] For plasma, intra- and interday accuracies ranged from 80.6% to 114.9%, with a coefficient of variation (CV) of 2.6%–14.8%. For BAL fluid, accuracy ranged from 82.3% to 114.3%, with a CV of 3.4%–13.7%. All sample concentrations exceeded the lower limit of quantification (LLOQ).
PopPK analyses were conducted using a non-linear mixed-effect modeling program, NONMEM, version 7.5 (Icon Development Solutions, USA). Model development utilized first-order conditional estimation to assess the interaction between patient variability and residual variability. One- or two-compartment structural models were evaluated for both ELF and plasma drug exposure to establish the basic model that best fitted the original data. […]

[7] = tested on: extensively drug-resistant GNB; conditions: cited from earlier work
Experimental: While an IV loading dose enhances early plasma exposure of PMB, it has minimal impact on early ELF exposure. […] Currently, the dosing regimen for PMB nebulization in clinical practice is predominantly empirical, typically involving doses of 25 or 50 mg administered twice daily ([19][–][21]). In a PK analysis of 105 patients ...

[8] = bootstrap median, 1,000 resampled data sets

In the case of colistin, the fAUCELF/MIC targets (Pseudomonas aeruginosa) is listed as 684–1,050.
For `CC[C@H](C)CCCCC(=O)N[C@@H](CCN)C(=O)N[C@H](C(=O)N[C@@H](CCN)C(=O)N[C@H]1CCNC(=O)[C@H]([C@@H](C)O)NC(=O)[C@H](CCN)NC(=O)[C@H](CCN)NC(=O)[C@H](CC(C)C)NC(=O)[C@@H](Cc2ccccc2)NC(=O)[C@H](CCN)NC1=O)[C@@H](C)O` [PMB, Polymyxin B] (X1-[Dab]T[Dab][Dab][Dab][dF]L[Dab][Dab]T; lactam 4-C), the “effect on human alveolar epithelial A549 cells” value [1] is given as “disrupt redox balance, mitochondrial beta-oxidation, and membrane lipid biosynthesis”, the “AUC/MIC targets in ELF associated with antibacterial activity” value [2] is given as 326 to 989 and the unbound fraction [3] is given as 0.42. For the same compound, the “average urine recovery rate” value [4] was 23.56%, the CL1 ([4]; range across previous PMB two-compartment models) was 1.19 to 2.63 L/h and the CL2 ([4]; range across previous studies) was 1.98 to 13.83 L/h. For the same compound, the V1 ([4]; range across previous studies) was 6.35 to 33.77 L, the V2 ([4]; range across previous studies) was 7.92 to 78.2 L and the urinary recovery rate ([4]; range, ref 39 (Sandri et al.)) was 0.98% to 17.4%. For the same compound, the “AUC/MIC targets in ELF associated with antibacterial activity” value [5] was 1,326 to 1,506, the “AGE on V3 (covariate effect)” value [6, 8] was 1.28 and the “ALB on CL3 (covariate effect)” value [6, 8] was −0.894. The “CL1, central compartment clearance of plasma” value [6, 8] was 1.39 L/h, the “CL2, intercompartmental clearance of plasma” value [6, 8] was 13.1 L/h and the “CL3, central compartment clearance of ELF” value [6, 8] was 0.186 L/h. For the same compound, the “CL4, intercompartmental clearance of ELF” value [6, 8] was 3.44 L/h, the “F, bioavailability of nebulization” value [6, 8] was 0.556 and the “Q, intercompartmental clearance between compartments 1 and 3” value [6, 8] was 0.03 L/h. The “V1, central compartment distribution volume of plasma” value [6, 8] was 27.59 L, the “V2, intercompartmental (peripheral) distribution volume of plasma” value [6, 8] was 17.11 L and the “V3, central compartment distribution volume of ELF” value [6, 8] was 0.896 L. For the same compound, the “V4, intercompartmental (peripheral) distribution volume of ELF” value [6, 8] was 4.33 L, the “AUC24h, ELF” value ([6]; epithelial lining fluid, 76 patients, median (interquartile range), nebulized PMB 25 mg q12h alone or with IV PMB, LC-MS/MS, urea-corrected BAL) was 52.5 (35.3–102.8) mg·h/L and the “AGE on V3 (covariate effect)” value ([6]; final PopPK model estimate) was 1.28. The “ALB on CL3 (covariate effect)” value ([6]; final PopPK model estimate) was −0.893, the “CL2, intercompartmental clearance of plasma” value ([6]; final PopPK model estimate) was 13.11 L/h and the “CL3, central compartment clearance of ELF” value ([6]; final PopPK model estimate) was 0.186 L/h. The “CL4, intercompartmental clearance of ELF” value ([6]; final PopPK model estimate) was 3.44 L/h, the “F, bioavailability of nebulization (fraction of drug reaching the lungs)” value ([6]; final PopPK model estimate) was 0.557 and the “Q, intercompartmental clearance between compartments 1 and 3 (plasma and ELF)” value ([6]; final PopPK model estimate) was 0.03 L/h. For the same compound, the “V1, central compartment distribution volume of plasma” value ([6]; final PopPK model estimate) was 27.6 L, the “V2, intercompartmental (peripheral) distribution volume of plasma” value ([6]; final PopPK model estimate) was 17.1 L and the “V3, central compartment distribution volume of ELF” value ([6]; final PopPK model estimate) was 0.896 L. The “V4, intercompartmental (peripheral) distribution volume of ELF” value ([6]; final PopPK model estimate) was 4.35 L, the clearance ([6]; human, plasma, final PopPK model estimate, NONMEM, 76 patients, steady state, read-out: CL1, central compartment clearance of plasma (converted)) was 23.2 mL/min and the “AUC24h, plasma” value ([6]; plasma, median (interquartile range), nebulized PMB alone or with IV PMB, LC-MS/MS) was 35.0 (22.0–54.2) mg·h/L. The “bacterial clearance time, inhalation group vs IV group” value ([7]; P = 0.002) was “significantly shorter” and the “risk of acute kidney injury, inhalation group vs IV group” value ([7]; P = 0.025) was “trend toward a reduced risk”.
